Data set [1] in a line: Pour point. The class given is physicochemical. The source says:
In addition, the inventive ester oils have a high flashpoint, such that use at relatively high oil sump and component temperatures is possible without risk. In addition, the pour point of the ester oils is relatively low, as a result of which the esters are also usable at low temperatures. For a liquid product, the pour point denotes the temperature at which it is still just free-flowing in the course of cooling. Thus, the inventive ester oils can be used within a broad temperature range.

The nature of data set [2]: NOACK vaporization (physical vaporization according to Noack, 250° C. for 1 h). The class given is physicochemical. From the text: Trimethylolpropane esters (TMP-C8/C10) are commercially available from various suppliers and have been used for comparative purposes.
The nature of data set [3]: Kinematic viscosity. The class given is physicochemical.
The nature of data set [4]: Viscosity index (VI). The data set is classed as physicochemical.
Data set [5] can be described thus: Flashpoint. The class given is physicochemical.
For data set [6] the following is noted: taken from safety data sheets; cited from earlier work.
Data set [7] can be described thus: Density. The class given is physicochemical. The settings on record: Table 3.
Data set [8] is described as follows: Cold Crank Simulator according to ASTM D5293. The data set is classed as physicochemical. As to the method:
For the C12D13 esters and the C10D13 esters, three independently prepared samples were included in each case. For the C9D13 ester and for the D5C18 ester, one sample was analyzed in each case. The “CCS−25° C. [mPas]” and “CCS−20° C. [mPas]” columns each contain figures for the “Cold Crank Simulator” according to the standard ASTM D5293 at −25° C. and −20° C. The HTHS150° C. [mPas] column indicates what is called the “High-Temperature High-Shear Viscosity” (HTHS) at elevated temperature.

The conditions of data set [9]: taken from safety data sheets; cited from earlier work. The source holds these as a separate data set.
The conditions of data set [10]: taken from safety data sheets; cited from earlier work. This is another data set of the same source.
Setting [11] is: Table 3, listed as C10D13 (4th sample).
Where [12] appears, read: Table 3, listed as C10D13 (5th sample).

The values that follow come from US20130190217A1, “ESTER OILS” (PANOLIN Holding AG, priority 2010, published 2013).

“And” between values parts separate entries of the source, which are not always exact repeats. Equal values may be shown once.

Dodecanediol dipelargonate returned a Pour point in data set [1] (Table 2, base oil) of −38 °C. The compound also gave an NOACK in [2] (Table 2, base oil) of 7.4%. In addition, in data set [3] (Table 2, 40° C.), the “η40° C.” value was 25.25 mm^2/s. In data set [3] (Table 2, 100° C.), the “η100° C.” value is reported as 5.58 mm^2/s. This compound registered a VI in data set [4] (Table 2, base oil) of 182.

In data set [1] (Table 2, base oil), `CC(C)CCCCCCCOC(=O)CCCCCCCC(=O)OCCCCCCCC(C)C` [Diisodecyl azelate] showed a Pour point of −65 °C. This compound came in with an NOACK in [2] (Table 2, base oil) of 9.8%. Moreover, the “η40° C.” value in data set [3] (Table 2, 40° C.) was determined as 18.1 mm^2/s. Also, the “η100° C.” value in [3] (Table 2, 100° C.) came to 4.3 mm^2/s. For the same compound, in [4] (Table 2, base oil), the VI is 151. In addition, the Flashpoint in data set [5] (Table 2, base oil) is 230 °C.

For `CCCCCCCCCCCCCCOC(=O)CCCCC(=O)OCCCCCCCCCCCCCC` [Ditetradecyl adipate], the “η40° C.” value in [3] (Table 2, 40° C.) was determined as 34.3 mm^2/s. Also, in data set [3] (Table 2, 100° C.), the “η100° C.” value turned out to be 5.1 mm^2/s. For the same compound, in [4] (Table 2, base oil), the VI was found to be 75.

In the case of `CC(C)CCCCCCCOC(=O)CCCCC(=O)OCCCCCCCC(C)C` [Diisodecyl adipate], the Pour point in data set [1] (Table 2, base oil) is −60 °C. In [2] (Table 2, base oil), this compound had an NOACK of 15.5%. In data set [3] (Table 2, 40° C.), the “η40° C.” value was determined as 14.0 mm^2/s. Also, the “η100° C.” value in data set [3] (Table 2, 100° C.) is 3.10 mm^2/s. In data set [4] (Table 2, base oil), the VI is on record as 148. In addition, the Flashpoint in data set [5] (Table 2, base oil) is 235 °C.

As to `CC(C)CCCCCCCCCCOC(=O)CCCCCCCCC(=O)OCCCCCCCCCCC(C)C` [C10D13, di(isotridecyl)decanedioate], the Pour point in [1] (setting [11]) was −52 °C; in [1] (setting [12]) it was −50 °C. Besides, the NOACK in [2] (Table 3, 250° C. for 1 h, listed as C10D13 (4th sample)) is recorded as 2.7%; in data set [2] (Table 3, 250° C. for 1 h, listed as C10D13 (5th sample)) it was 4%; in data set [2] (Table 3, 250° C. for 1 h, listed as C10D13 (6th sample)) it was 3.4%. Also, the “η40° C.” value in data set [3] (Table 3, 40° C., listed as C10D13 (4th sample)) is 35.5 mm^2/s; in data set [3] (Table 3, 40° C., listed as C10D13 (5th sample)), 36.0 mm^2/s; in data set [3] (Table 3, 40° C., listed as C10D13 (6th sample)), 35.7 mm^2/s. For the same compound, the “η100° C.” value in data set [3] (Table 3, 100° C., listed as C10D13 (4th sample)) worked out at 7.2 mm^2/s; in data set [3] (Table 3, 100° C., listed as C10D13 (5th sample)) it was 6.8 mm^2/s; in data set [3] (Table 3, 100° C., listed as C10D13 (6th sample)), 6.7 mm^2/s. In addition, the VI in data set [4] (setting [11]) stood at 172; in [4] (setting [12]) it was 150; in data set [4] (Table 3, listed as C10D13 (6th sample)), 149. The Flashpoint in [5] (Table 3) stood at 250 °C.

In turn, Di(iso-C9) dodecanedioate displayed a Pour point in [1] (Table 2, base oil) of −25 °C. This compound returned an NOACK in [2] (Table 2, base oil) of 6.0%. Besides, the “η40° C.” value in data set [3] (Table 2, 40° C.) is 23.2 mm^2/s. Also, the “η100° C.” value in data set [3] (Table 2, 100° C.) worked out at 5.28 mm^2/s. The compound further returned a VI in data set [4] (Table 2, base oil) of 184.

In [1] (Table 2, base oil), `CCCCCCCCC(CCCCCC)COC(=O)CCCCCCCC(=O)OCC(CCCCCC)CCCCCCCC` (stereo not drawn) [Bis(2-hexyldecyl) azelate] came in with a Pour point of −64 °C. The “η40° C.” value in [3] (Table 2, 40° C.) was found to be 33.0 mm^2/s. In data set [3] (Table 2, 100° C.), the “η100° C.” value was found to be 6.60 mm^2/s. In [4] (Table 2, base oil), the VI stood at 160. In [5] (Table 2, base oil), this compound had a Flashpoint of 278 °C.

For the compound “trimethylolpropane ester [TMP-C8/10, reference compound]”, in [6], the “Aquatic toxicity OECD 201” value is 140 mg/L. In data set [1] (Table 3), this compound yielded a Pour point of −30 °C. In data set [7], this compound showed a Density of 0.94 g/mL. Also, the NOACK in [2] (Table 3, 250° C. for 1 h) was found to be 3.6%. For the same compound, the “η40° C.” value in data set [3] (Table 3, 40° C.) came to 22 mm^2/s. The “η100° C.” value in [3] (Table 3, 100° C.) is 4.5 mm^2/s. Besides, in data set [8], the “CCS−20° C.” value is 221 mPas and the “CCS−25° C.” value was 853 mPas. Further, in data set [4] (Table 3), the VI is recorded as 140. Moreover, in data set [9], the “Aquatic toxicity OECD 202” value was 600 mg/L. Moreover, the “Aquatic toxicity OECD 203” value in [10] is >10 000 mg/l. In addition, the Flashpoint in data set [5] (Table 3) was determined as 235 °C.

For `CC(C)CCCCCCCCCCOC(=O)CCCCC(=O)OCCCCCCCCCCC(C)C` [DITA, diisotridecyl adipate, reference compound], in data set [6], the “Aquatic toxicity OECD 201” value was more than 1000 mg/L. For the same compound, the Pour point is −51 °C in [1] (Table 2, base oil) and −60 °C in data set [1] (Table 3). The Density in data set [7] amounted to 0.91 g/mL. In addition, the NOACK in data set [2] (Table 2, base oil) is given as 8-10%; in data set [2] (Table 3, 250° C. for 1 h), 10.0%. Further, the “η40° C.” value in [3] (Table 2, 40° C.) was 27.0 mm^2/s; in data set [3] (Table 3, 40° C.) it was 25 mm^2/s. The “η100° C.” value in data set [3] (Table 2, 100° C.) is reported as 5.4 mm^2/s; in data set [3] (Table 3, 100° C.) it was 5 mm^2/s. Besides, the “CCS−20° C.” value in data set [8] was 1455 mPas. Further, the “CCS−25° C.” value in [8] is 2646 mPas. Besides, the VI in data set [4] (Table 2, base oil) worked out at 139; in data set [4] (Table 3) it was 139. The “Aquatic toxicity OECD 202” value in data set [9] was more than 100 mg/L. For the same compound, the Flashpoint in [5] (Table 2, base oil) was determined as 227 °C; in [5] (Table 3), 244 °C.

As for `CCCCCCCCCCCCCOC(=O)CCCCCCCC(=O)OCCCCCCCCCCCCC` [Ditridecyl azelate], in data set [1] (Table 2, base oil), the Pour point was −55 °C. Also, the “η40° C.” value in [3] (Table 2, 40° C.) worked out at 33.8 mm^2/s. Also, the “η100° C.” value in [3] (Table 2, 100° C.) was determined as 6.4 mm^2/s. This compound also showed a VI in data set [4] (Table 2, base oil) of 145. The same compound yielded a Flashpoint in data set [5] (Table 2, base oil) of 243 °C.

In the case of `CC(C)CCCCCCCOC(=O)CCCCCCCCCCC(=O)OCCCCCCCC(C)C` [Di(isodecyl) dodecanedioate], the NOACK in data set [2] (Table 2, base oil) is 3.5% and 4.3%. Further, in data set [3] (Table 2, 40° C.), the “η40° C.” value was 25.7 mm^2/s and 23.4 mm^2/s. Further, the “η100° C.” value in data set [3] (Table 2, 100° C.) was 5.58 mm^2/s and 5.2 mm^2/s. Further, the VI in data set [4] (Table 2, base oil) is 161 and 162. Also, in data set [5] (Table 2, base oil), the Flashpoint is 266 °C.

For `CC(C)CCCCCCCCCCOC(=O)CCCCCCCC(=O)OCCCCCCCCCCC(C)C` [C9D13, di(isotridecyl)nonanedioate], in data set [1] (Table 2, base oil), the Pour point is −39 °C. In addition, the NOACK is on record as 4.0% in [2] (Table 2, base oil) and 3.5% in [2] (Table 3, 250° C. for 1 h). Besides, the “η40° C.” value is recorded as 42.4 mm^2/s in data set [3] (Table 2, 40° C.) and 36.1 mm^2/s in [3] (Table 3, 40° C.). For the same compound, the “η100° C.” value amounted to 6.82 mm^2/s in [3] (Table 2, 100° C.) and 6.8 mm^2/s in data set [3] (Table 3, 100° C.). The VI in data set [4] (Table 2, base oil) worked out at 124; in [4] (Table 3), 150. Further, the Flashpoint in data set [5] (Table 2, base oil) amounted to 258 °C.

In turn, Di(C9) dodecanedioate had an NOACK in data set [2] (Table 2, base oil) of 5.0%. Besides, the “η40° C.” value in data set [3] (Table 2, 40° C.) came to 24.8 mm^2/s. The “η100° C.” value in data set [3] (Table 2, 100° C.) is listed as 5.6 mm^2/s. In addition, the VI in data set [4] (Table 2, base oil) was found to be 189. In addition, the Flashpoint in data set [5] (Table 2, base oil) was 245 °C.

Regarding `CC(C)CCCCCCCCCCCCCCC(=O)OCC(C)(C)COC(=O)CCCCCCCCCCCCCCC(C)C` [D5C18, neopentyl glycol di(isostearate)], in [6], the “Aquatic toxicity OECD 201” value is more than 1000 mg/L. The Pour point in data set [1] (Table 3) was −44 °C. The compound also showed an NOACK in [2] (Table 3, 250° C. for 1 h) of 2.0%. In addition, in [3] (Table 3, 40° C.), the “η40° C.” value came to 46.0 mm^2/s. In addition, the “η100° C.” value in data set [3] (Table 3, 100° C.) was 8.0 mm^2/s. For the same compound, the VI in data set [4] (Table 3) was 146. In addition, in [9], the “Aquatic toxicity OECD 202” value is more than 1000 mg/L. The “Aquatic toxicity OECD 203” value in data set [10] is given as >10 000 mg/l. The compound also registered a Flashpoint in data set [5] (Table 3) of 280 °C.
